The values below are quoted from earlier work in patent US7214684B2, “Methods for the treatment of allergic rhinitis” (Sepracor Inc., priority 1994, dated 2007).

One data set concerns the target H-2 histamine receptor (Homo sapiens, UniProt P25021). The settings on record: H-2 receptor-mediated response.
In data set [1] the test system is melanoma and fibrosarcoma tumors. The settings on record: Brandes et al. 1994.

Sequence of H-2 histamine receptor (P25021 whole entry): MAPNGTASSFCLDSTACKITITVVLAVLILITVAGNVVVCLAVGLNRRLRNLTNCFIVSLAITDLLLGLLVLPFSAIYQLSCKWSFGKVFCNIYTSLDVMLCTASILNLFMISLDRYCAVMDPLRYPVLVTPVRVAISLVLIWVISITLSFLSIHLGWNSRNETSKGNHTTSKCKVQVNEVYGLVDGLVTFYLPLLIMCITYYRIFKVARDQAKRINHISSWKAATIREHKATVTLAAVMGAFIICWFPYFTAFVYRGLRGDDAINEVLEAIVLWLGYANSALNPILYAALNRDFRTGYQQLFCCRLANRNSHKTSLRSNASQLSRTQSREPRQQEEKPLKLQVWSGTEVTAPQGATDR

With `CCOC(=O)N1CCC(=C2c3ccc(Cl)cc3CCc3cccnc32)CC1` [Loratadine], on H-2 histamine receptor, the “effect on the chronotropic effect of histamine on atria” value is “nor does it alter”. In data set [1], the “association with tumor growth” value was “associated with growth of both melanoma and fibrosarcoma tumors”.

For the compound `COc1ccc(CCN2CCC(Nc3nc4ccccc4n3Cc3ccc(F)cc3)CC2)cc1` [astemizole], the “association with tumor growth” value in data set [1] was “associated with growth of both melanoma and fibrosarcoma tumors”.
